US5919374A, “Method of disinfecting water with iodine species” (Iosolutions Incorporated, priority 1997, dated 1999)
Read-outs that look alike come from different tables or passages of the source.

What was measured:
viruses = details: higher pHs, e.g. 7-10; cited from earlier work
[1] = above pH 8, especially in the presence of dissolved iodides; Chang (1); cited from earlier work
[2] = crystalline iodine in water; cited from earlier work
E. coli = details: cited from earlier work
bacteria = details: pHs 5-7; cited from earlier work
chickens [3] = assay: Safe consumption of residual iodine by chickens
[4] = test system: E. coli fecal streptococci; details: cited from earlier work
[5] = Concentration of iodine species in water leaving the crystalline iodine generators; format: physicochemical; details: pH 6-8, flow about 200 ml/minute
Procedure: Artesian water is fed through inlet conduit 8 past shut-off valve 10 through preconditioner 12 at a flow rate of not less than 2 l. per minute and not more than about 50 l. per minute preferably on average about 10 l. per minute at a pH 6-8, […] Main flow water passes through conduit 14 where some of the main flow is diverted to iodine generator assembly 15 through conduit 16 at a flow rate of about 200 ml/minute. The rest of the main flow flows through flow restrictor disk 20 such that an absolute pressure drop of about 2 psi is generated across flow restrictor disk 20. Flow restrictor 20 governs the rate of flow of diverted main flow which ultimately reaches iodine generator assembly 15. The main flow now proceeds through flow switch 22, such that, at a pre-set flow rate exceeding 2 l per minute, the flow switch 22 generates an electrical impulse which is fed to dual action solenoid valve 24. Such an impulse is continuous and causes solenoid valve 24 to open and remain so, as long as the flow rate is maintained above 2 l per minute. The rest of the main flow continues through conduit 14 uninterrupted until iodine liquor is blended back into the main flow at iodine species liquor injection port 44. […]

chickens [6] = details: cited from earlier work

| SMILES | virucidal action (viruses) | decomposition to iodide and iodate ions [1] | solubility in water versus temperature [2] | % Kill (E. coli) | concentration by which E coli is effectively killed (E. coli) | antibacterial action (bacteria) | concentration of residual iodine chickens could safely consume (chickens [3]) | % Kill ([4]; Black et al., 1968, 18 C., contact time 1 min, 0.5 ppm I2) | % Kill ([4]; Ellis et al., 1989, 20 C., contact time 30 min, avg. 4 ppm I2) | concentration of iodine species concentrate ([5]; first iodine generator, about 20° C.) | concentration of resultant (saturated) iodine liquor ([5]; second iodine generator, about 28° C.) | LD50 (chickens [6]) |
| --- | --- | --- | --- | --- | --- | --- | --- | --- | --- | --- | --- | --- |
| OI [HOI, hypoiodous acid] | efficient virucide | decomposes slowly |  |  |  |  |  |  |  |  |  |  |
| II [iodine] |  |  | directly proportional to the temperature of the water | 99.99% | 1-10 ppm | exhibits antibacterial action | about 2 ppm | 99.99% | 99.99% | 200-240 ppm | 280-320 ppm | about 625 ppm |
